Tests used:
[1] = Stability in final solution (analytical HPLC and radio-TLC); assay type: physicochemical; settings: for release of [^18F]AlF^2+: in solution
Protocol: Chemical and radiochemical stability in the final solution were tested by analytical HPLC and radio-TLC (Additional file 1: S37–S41); samples of the purified product were analyzed up to four hours after the end of radiosynthesis, at time intervals of two hours and storing the vial at room temperature.
Stability in solution of [^18F]F-PSMA-617-NODA ([^18F]1) and [^18F]F-PSMA-617-RESCA ([^18F]2) were evaluated injecting in RP-HPLC (for experimental conditions, see sections “(((S)-5-((S)-2-((1R,4S)-4-((4-(4,7-bis(carboxymethyl)-1,4,7-triazonan-1-yl)butanamido)methyl)cyclohexane-1-carboxamido)-3-(naphthalen-2-yl)propanamido)-1-carboxypentyl)carbamoyl)-L-glutamic acid [^18F] aluminium fluoride ([^18F] 1)” and “(((S)-5-((S)-2-((1R,4S)-4-((2-(4-((((1R,2R)-2-(bis(carboxymethyl)amino)cyclohexyl)(carboxymethyl)amino)methyl)phenyl)acetamido)methyl)cyclohexane-1-carboxamido)-3-(naphthalen-2-yl)propanamido)-1-carboxypentyl)carbamoyl)-L-glutamic acid [18F] aluminium fluoride ([18F] 2)”) samples (20 µl) of respective radiopharmaceutical solutions at t = 0 (EOS), after 2 h and after 4 h. Moreover, ≈ 7.5 kBq of [^18F]1 or [^18F]2 solution were deposited on TLC sheet. The TLC was imaged using Cyclone® Plus Phosphor Scanner and software OptiQuant™.

[2] = Stability in human plasma (HPLC, radio-TLC, pellet/supernatant activity); assay type: in vitro ADME; settings: ACN precipitation
Protocol: Stability in plasma was evaluated mixing aliquots of [^18F]1 or [^18F]2 solutions (10 MBq for 2 h incubation and 20 MBq for 4 h incubation samples) with 200 µL of human serum. The mixtures were incubated at 37 °C. Aliquots were taken at 2 h and 4 h. Plasma pellet was precipitated with 200 µL acetonitrile and centrifuged (13,500 rpm, 10 min). The supernatant was removed, and the activity of the supernatant solution and pellet was measured using a dose calibrator (VIK-202 Comecer). The supernatant solution was analyzed injecting in RP-HPLC (diluted 1:5 in water) and Radio-TLC as above described.

[3] = test system: Gli36ΔEGFR tumours-bearing nude mice; assay: PET/CT in vivo biodistribution and tumour uptake in orthotopic Gli36ΔEGFR glioma model; settings: n = 3; for Bone (SUV mean) / Brain (SUV mean) / Colon (SUV mean) / Gall bladder (SUV mean) / Heart (SUV mean) / Kidney (SUV mean) / Liver (SUV mean) / Lung (SUV mean) / Muscle (SUV mean) / Salivary gland (SUV mean) / Small instestine (SUV mean): Gli36ΔEGFR female nude mice, i.v., PET/CT; for tumour-to-contralateral healthy brain ratio (tumour SUV max/contralateral SUV mean): Gli36ΔEGFR orthotopic glioma, nude mice
Protocol: Subsequently, we evaluated the uptake of [^18F]F-PSMA-617-NODA ([^18F]1) and [^18F]F-PSMA-617-RESCA ([^18F]2) in an orthotopic glioma model obtained with Gli36ΔEGFR cells in female nude mice. Gli36ΔEGFR tumours-bearing nude mice (n = 3) were injected i.v. with either [^18F]F-PSMA-617-NODA or [^18F]F-PSMA-617-RESCA (~ 3.8 MBq/mouse, ~ 50 pmol for [^18F]1 and ~ 170 pmol [^18F]2). Radiotracer uptake was assessed after 10, 60 and 120 min post injection by whole-body PET/CT acquisitions. Also in nude female mice, a rapid clearance of [^18F]1 in all organs and the same kinetic observed in NSG male mice (Additional file 1: S71A and B) were confirmed. […] It is interesting to note that the uptake of [^18F]1 in kidneys decreased over time in both models (Additional file 1: S71A and B), while the uptake of [^18F]F-PSMA-1007 in NSG model and [^18F]2 in nude female mice model increased (Additional file 1: S71C and D).
Total body biodistribution of [^18F]F-PSMA-1007, [^18F]F-PSMA-617-NODA and [^18F]F-PSMA-617-RESCA was evaluated in vivo using imaging PET/CT. [^18F]F-PSMA-617-NODA uptake was compared to that of the [^18F]F-PSMA-1007 in a PSMA positive prostate tumour xenograft model (LNCaP). [^18F]F-PSMA-617-NODA and [^18F]F-PSMA-617-RESCA uptake were also evaluated using an orthotopic glioma model (Gli36ΔEGFR).
5 × 10^5 Gli36ΔEGFR cells were injected in the right striatum of seven to eight weeks old female nude mice (Envigo RMS s.r.l., Italy) as previously described (Valtorta et al. [2021]). Ten days after mice underwent a T2-weighted Magnetic Resonance Imaging (MRI) using a 7 T small animal magnetic resonance scanner (Bruker, BioSpec 70/30 USR, Paravision 5.1, Germany) to confirm the growth of the tumour. Then, the same mice underwent in vivo biodistribution of [^18F]F-PSMA-617-NODA and [^18F]F-PSMA-617-RESCA, on successive but non-consecutive days, using PET/CT.
Mice were injected into a tail vein with 3.8 ± 0.1 MBq of [^18F]F-PSMA-1007, 4.0 ± 0.2 MBq of [^18F]F-PSMA-617-NODA ([^18F]1) and 3.8 ± 0.1 MBq of [^18F]F-PSMA-617-RESCA ([^18F]2), respectively.
Total body PET/CT acquisitions were performed using PET/CT tomographs dedicated to small animals, X-ß-CUBE (Molecubes, Gent, Belgium) after 10, 60 and 120 min from tracer injection. Each acquisition lasted 30 min and mice were maintained anesthetized (4% isoflurane in induction and 2% in maintenance in air) during acquisition.
Image quantification analysis was performed with PMOD 4.105 software (Zurich, Switzerland). Volumes of interest (VOIs) were drawn on peripheral organs (tumour, thoracic muscle, heart, liver, kidney, salivary glands, lung, small intestine, colon, bone, gall bladder) and on the healthy brain using CT images. For the glioma model, PET/CT images were co-registered to MRI images and two different VOIs were defined: (1) a control VOI covering the healthy left striatum (volume 4 mm^3) was drawn on the axial MR images, adjusted on the other imaging planes and then copied on the PET images of each mouse; (2) a second glioma-covering VOI was drawn in the tumour-affected brain hemisphere and centered on mice lesions.
For quantification, Standardized Uptake Value (SUV) was calculated according to the formula:
SUV = organ concentration activity [MBq/g]/(injected activity [MBq]/animal weight [g]).
The data were expressed as standardized-uptake-values (SUVmean and SUVmax) and as tumour-to-muscle (T/M) and tumour-to-blood (T/B) ratio in PCa model and as tumour-to-contralateral (T/Cl) ratio in glioma model.

[4] = [18F]2, 2 h incubation in plasma, total activity incubated 3.91 MBq
[5] = [18F]2, 4 h incubation in plasma, total activity incubated 4.62 MBq

Q: What does the source list for O=C(O)CCC(NC(=O)NC(CCCCNC(=O)C(Cc1ccc2ccccc2c1)NC(=O)C1CCC(CNC(=O)Cc2ccc(CN(CC(=O)O)C3CCCCC3N(CC(=O)O)CC(=O)O)cc2)CC1)C(=O)O)C(=O)O.[18F][Al] [[^18F]F-PSMA-617-RESCA, (((S)-5-((S)-2-((1R,4S)-4-((2-(4-((((1R,2R)-2-(bis(carboxymethyl)amino)cyclohexyl)(carboxymethyl)amino)methyl)phenyl)acetamido)methyl)cyclohexane-1-carboxamido)-3-(naphthalen-2-yl)propanamido)-1-carboxypentyl)carbamoyl)-L-glutamic acid [^18F] aluminium fluoride]?
A: amount of free [^18F]AlF^2+ in solution ([1]; approximately 85 min after EOS (time of injection), supposed): < 5%; release of [^18F]AlF^2+ ([1]; after 2 h of incubation at room temperature): 4.9%; release of [^18F]AlF^2+ ([1]; at EOS): 1.2%; release of [^18F]AlF^2+ ([1]; room temperature, after 4 h): 10%; Pellet activity [2, 4]: 0.45 MBq; Supernatant activity [2, 4]: 3.46 MBq; Pellet activity [2, 5]: 0.57 MBq; Supernatant activity [2, 5]: 4.05 MBq; Bone (SUV mean) ([3]; 10 min p.i.): 0.21 ± 0.03; Brain (SUV mean) ([3]; 10 min p.i.): 0.09 ± 0.02; Colon (SUV mean) ([3]; 10 min p.i.): 0.29 ± 0.23; Gall bladder (SUV mean) ([3]; 10 min p.i.): 3.28 ± 3.18; Heart (SUV mean) ([3]; 10 min p.i.): 0.35 ± 0.05; Kidney (SUV mean) ([3]; 10 min p.i.): 6.92 ± 1.16; Liver (SUV mean) ([3]; 10 min p.i.): 0.98 ± 0.15; Lung (SUV mean) ([3]; 10 min p.i.): 0.31 ± 0.01; Muscle (SUV mean) ([3]; 10 min p.i.): 0.19 ± 0.05; Salivary gland (SUV mean) ([3]; 10 min p.i.): 0.54 ± 0.14; Small instestine (SUV mean) ([3]; 10 min p.i.): 1.99 ± 1.44; Bone (SUV mean) ([3]; 60 min p.i.): 0.20 ± 0.07; Brain (SUV mean) ([3]; 60 min p.i.): 0.07 ± 0.02; Colon (SUV mean) ([3]; 60 min p.i.): 0.78 ± 1.05; Gall bladder (SUV mean) ([3]; 60 min p.i.): 5.22 ± 4.23; Heart (SUV mean) ([3]; 60 min p.i.): 0.17 ± 0.03; Kidney (SUV mean) ([3]; 60 min p.i.): 10.21 ± 0.80; Liver (SUV mean) ([3]; 60 min p.i.): 0.65 ± 0.22; Lung (SUV mean) ([3]; 60 min p.i.): 0.19 ± 0.04; Muscle (SUV mean) ([3]; 60 min p.i.): 0.12 ± 0.02; Salivary gland (SUV mean) ([3]; 60 min p.i.): 0.45 ± 0.10; Small instestine (SUV mean) ([3]; 60 min p.i.): 3.07 ± 1.02; Bone (SUV mean) ([3]; 120 min p.i.): 0.15 ± 0.11; Brain (SUV mean) ([3]; 120 min p.i.): 0.07 ± 0.01; Colon (SUV mean) ([3]; 120 min p.i.): 3.87 ± 5.37; Gall bladder (SUV mean) ([3]; 120 min p.i.): 5.07 ± 4.26; Heart (SUV mean) ([3]; 120 min p.i.): 0.11 ± 0.03; Kidney (SUV mean) ([3]; 120 min p.i.): 10.64 ± 1.25; Liver (SUV mean) ([3]; 120 min p.i.): 0.30 ± 0.11; Lung (SUV mean) ([3]; 120 min p.i.): 0.12 ± 0.03; Muscle (SUV mean) ([3]; 120 min p.i.): 0.11 ± 0.04; Salivary gland (SUV mean) ([3]; 120 min p.i.): 0.28 ± 0.10; Small instestine (SUV mean) ([3]; 120 min p.i.): 5.79 ± 2.07; tumour-to-contralateral healthy brain ratio (tumour SUV max/contralateral SUV mean) ([3]; 60 min p.i.): 2.93 ± 1.23; tumour-to-contralateral healthy brain ratio (tumour SUV max/contralateral SUV mean) ([3]; 120 min p.i.): 2.93 ± 0.08
